Reference: publication PMC4669722, “Antitumour potential of BPT: a dual inhibitor of cdk4 and tubulin polymerization” (Cell Death & Disease, 2015)
pIC50: −log10 of the molar value. Read-outs that look alike come from different tables or passages of the source.

Tests used:
[1] = tested on: BNL SV A.8 (SV40-mediated transformed mouse embryonic hepatic cell line); assay: Long-term cell survival assay, BNL SV A.8; type: cell-based; details: BNL SV A.8, 12 days
Method: Fig. S3: Long term survival of Mouse embryonic normal hepatic cell line (BNL CL2) and SV40 mediated transformed mouse embryonic hepatic cell line (BNL SV A.8) after the treatment with BPT. The cells were treated with the diffrent concentrations of BPT and then incubated in drug free medium for 12 days. the colonies were fixed in methanol : acetic acid (2: 1) and stained with 1% crystal violet and representative plates were scanned using the gel documentation system .

[2] = tested on: BNL CL2 (mouse normal hepatic cells); assay: Cell proliferation (MTT) assay, BNL CL2; type: cell-based
Method: (§1) All 10 human cancer cell lines were maintained at 37 °C in 5% CO2 in RPMI-1640 medium, supplemented with 10% foetal calf serum and 100 μg/ml normocin. The 10 cancer cell lines used for screening were all obtained from ATCC (Manassas, VA, USA); they were the NSCLC (a form of cancer that is resistant to chemotherapy) lines: NCI-H460 (pRb^+, p53^+), A549 (pRb^+, p53^+), Calu-1 (pRb^+, p53-null), NCI-H1299 (pRb^+, p53-null), NCI-H358 (pRb-null, p53-null); the colon cancer line LS174T (pRb^+, p53^+); the prostate cancer line PC-3 (pRb^+, p53-null); the pancreatic cancer line MiaPaca (pRb^+, p53-mutant). The genotypes within brackets indicate the status of the tumour suppressor proteins pRb and p53. The mouse embryonic normal hepatic cell line (BNL CL2) and its SV40 large T-antigen-transformed counterpart cell line (BNL SV A.8) were also purchased from ATCC. The large T-antigen inactivates the tumour suppressor proteins p53 and pRb. The detailed procedure of cell proliferation (MTT) assay and IC50 determination was described previously.[32]

EGFR = EGFR (Homo sapiens, UniProt P00533); assay: Kinase profiling (Millipore), EGFR; type: biochemical
Method: The in vitro kinase assays for testing against Cdk4-cyclin D1, Cdk2-cyclin A, Cdk1-cyclin B1 and Cdk9-cyclin T1 were performed in-house. The methodology and results have been reported previously.[20], [30], [31], [32], [45] The kinase profiling for 58 representative kinases was carrried out commercially at Millipore Bioscience Division, Livingston, UK.

tubulin in A549 cells = assay: Tubulin polymerization/depolymerization in live cells (western blot); type: cell-based, human
Method: A549 (NSCLC) cells were seeded at a concentration of 10 000 cells per well in 1 ml complete growth medium in 24-well per 15 mm culture plates. The plates were incubated for 24 h for cell attachment and stabilization. In the first set of experiments, the cells were treated with 10 nM paclitaxel and different concentrations of BPT for 30 min (cells underwent simultaneous treatment of paclitaxel and BPT). In the second set of experiments, to study the effect of BPT on the stabilised form of tubulin, cells were pretreated with 10 nM paclitaxel for 30 min. The cell monolayer was washed two times with sterile PBS and fresh growth medium containing different concentrations of BPT were added. The plates were further incubated for 30 min, the cell monolayers were washed two times with sterile PBS at room temperature and then 100 μl tubulin extraction buffer (1 mM MgCl2, 2 mM EGTA, 0.5% NP40 and 20 mM Tris-HCl (pH 6.8)) supplemented with 2 mM phenylmethylsulfonyl fluoride, and a protease inhibitor cocktail (Sigma-Aldrich; cat. no. P8340) was added per well. After a short and vigorous vortex mixing, the cell lysates were incubated at room temperature for 5 min and then centrifuged at 16 000 r.p.m. for 10 min to separate the soluble and polymerized tubulin fractions. […]

[3] = tested on: BNL SV A.8 (mouse hepatic; SV40-mediated transformed cells); assay: Cell proliferation (MTT) assay, BNL SV A.8; type: cell-based
Method: as §1

Calu-1 cells = assay: Cell cycle analysis, Calu-1; type: cell-based, human; details: p53-null, non-functional mitotic-spindle checkpoint
Method: (§2) The untreated (control) and treated (with test compounds) cells were harvested by trypsinization, washed once with PBS and then fixed in 70% chilled (−20 °C) ethanol for minimum 1 h. After the fixation step, cells were centrifuged for 5 min at 3000 × g at room temperature, and the pellet was suspended in PBS containing 50 μg/ml propidium iodide (Sigma-Aldrich, Dorset, UK; cat. no. P-4170) and 0.5 mg/ml DNase-free ribonuclease (Sigma-Aldrich; cat. no. R-5503). The cells were stained for 1 h in the dark at 4 °C. Cell cycle analysis was performed on the Beckman Coulter (Epics Altra) fluorescence-activated cell sorter (Beckman Coulter UK Ltd, Buckinghamshire, UK). To gate all the events that represent single cells, and not cell doublets or cell clumps, the following analyses were performed on the samples. Cytograms of propidium iodide fluorescence peak signal versus integrated fluorescence or the linear signal were plotted. All data points on the straight line were isolated in a single gate and the gated data was further used for plotting a histogram that represents a complete cell cycle. The total number of events was not allowed to exceed 200 events per s. Data acquisition was stopped after a minimum of 10 000 events had been collected.
Fig. S4. Cell cycle analysis of calu-1 cells upon BPT treatment. […]

[4] = tested on: BNL SV A.8 (mouse embryonic SV40-transformed hepatic cells); assay: Flow cytometric cell cycle analysis, BNL SV A.8; type: cell-based; details: 48 h
Method: as §2

[5] = tested on: LS174T (colorectal carcinoma; p53+, pRb+); assay: Cell proliferation (MTT) assay, LS174T; type: cell-based; details: Homo sapiens, 48 h, read-out: IC50 cell growth inhibition, LS174T
Method: as §1

[6] = BNL CL2, concentration used in long-term survival assay (Fig. S3)
[7] = BNL SV A.8, concentration used in long-term survival assay (Fig. S3)

Sequence of EGFR (P00533 25-1210): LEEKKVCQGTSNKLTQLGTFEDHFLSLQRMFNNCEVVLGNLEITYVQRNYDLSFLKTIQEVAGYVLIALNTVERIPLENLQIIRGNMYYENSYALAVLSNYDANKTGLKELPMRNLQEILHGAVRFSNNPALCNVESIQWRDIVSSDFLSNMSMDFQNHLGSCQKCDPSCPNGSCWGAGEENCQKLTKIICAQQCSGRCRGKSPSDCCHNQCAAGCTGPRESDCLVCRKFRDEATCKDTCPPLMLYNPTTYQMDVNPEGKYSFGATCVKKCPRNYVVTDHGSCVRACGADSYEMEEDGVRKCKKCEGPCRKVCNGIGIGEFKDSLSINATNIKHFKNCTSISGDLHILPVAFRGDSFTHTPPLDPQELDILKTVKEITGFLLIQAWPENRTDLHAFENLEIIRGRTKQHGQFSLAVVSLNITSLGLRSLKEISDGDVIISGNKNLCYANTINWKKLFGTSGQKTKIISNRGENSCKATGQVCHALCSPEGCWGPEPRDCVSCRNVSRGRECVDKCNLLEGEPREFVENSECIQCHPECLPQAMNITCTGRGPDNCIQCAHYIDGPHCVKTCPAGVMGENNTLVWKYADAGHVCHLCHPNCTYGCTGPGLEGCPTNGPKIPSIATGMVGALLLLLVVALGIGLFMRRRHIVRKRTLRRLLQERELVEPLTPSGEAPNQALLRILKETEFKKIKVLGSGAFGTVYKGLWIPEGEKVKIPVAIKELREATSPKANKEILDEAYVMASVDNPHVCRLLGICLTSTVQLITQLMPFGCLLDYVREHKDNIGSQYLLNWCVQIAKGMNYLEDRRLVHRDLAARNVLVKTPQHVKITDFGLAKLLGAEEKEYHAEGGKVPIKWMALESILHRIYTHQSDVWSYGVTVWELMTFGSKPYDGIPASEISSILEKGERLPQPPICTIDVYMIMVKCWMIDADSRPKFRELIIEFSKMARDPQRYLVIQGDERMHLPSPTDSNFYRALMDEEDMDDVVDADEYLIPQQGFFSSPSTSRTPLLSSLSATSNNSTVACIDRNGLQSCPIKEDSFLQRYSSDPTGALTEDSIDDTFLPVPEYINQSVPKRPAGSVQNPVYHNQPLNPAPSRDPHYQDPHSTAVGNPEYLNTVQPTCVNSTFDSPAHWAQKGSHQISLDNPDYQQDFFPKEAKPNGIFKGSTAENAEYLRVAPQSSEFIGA

Question: How did the “number of colonies, long-term survival” value [1] turn out when `O=C(c1ccccc1-c1ccccc1)N1CCc2c([nH]c3ccccc23)C1` [BPT, 2-(biphenyl-2-carbonyl)-2,3,4,9-tetrahydro-1H-pyrido[3,4-b]indole] was run?
Answer: selectively reduces the number of colonies

Question: And the IC30 [2, 6]?
Answer: 400 nM

Question: What about the IC70 [2, 6] of the same compound?
Answer: 900 nM

Question: And the pIC50 ([2]; Mus musculus, BNL CL.2, 48 h, MTT, read-out: IC50 cell growth inhibition, BNL CL2)?
Answer: 6.14

Question: What about the IC20 ([2]; Mus musculus, BNL CL.2, BNL CL2, concentration used in long-term survival assay (Fig. S3)) of the same compound?
Answer: 250 nM

Question: And the pIC50 ([2]; Mus musculus, BNL CL.2, BNL CL2, concentration used in long-term survival assay (Fig. S3), read-out: IC50)?
Answer: 6.22

Question: What about the pIC50 (EGFR) of the same compound?
Answer: < 5.00

Question: And the “paclitaxel-mediated tubulin polymerization in live cells” value (tubulin in A549 cells; A549, simultaneous 10 nM paclitaxel and BPT, 30 min)?
Answer: inhibited in a dose-dependent manner

Question: And the “depolymerization of paclitaxel-stabilized tubulin in live cells” value (tubulin in A549 cells; A549 pretreated with 10 nM paclitaxel 30 min, then BPT 30 min)?
Answer: enhanced the tubulin depolymerization

Question: And the IC30 [3, 7]?
Answer: 400 nM

Question: And the IC70 [3, 7]?
Answer: 900 nM

Question: And the pIC50 ([3]; Mus musculus, 48 h, MTT, read-out: IC50 cell growth inhibition, BNL SV A.8)?
Answer: 6.12

Question: What about the IC20 ([3]; Mus musculus, BNL SV A.8, concentration used in long-term survival assay (Fig. S3)) of the same compound?
Answer: 250 nM

Question: And the pIC50 ([3]; Mus musculus, BNL SV A.8, concentration used in long-term survival assay (Fig. S3), read-out: IC50)?
Answer: 6.22

Question: What about the “phase of cell cycle block in Calu-1 cells” value (Calu-1 cells) of the same compound?
Answer: blocks only at the G0/G1 phase

Question: And the “cells in Sub G1 (apoptosis)” value ([4]; BNL SV A.8, IC50 concentration)?
Answer: 43%

Question: And the “cells in Sub G1 (apoptosis)” value ([4]; BNL SV A.8, IC70 concentration)?
Answer: 51%

Question: What about the pIC50 [5] of the same compound?
Answer: 6.07
